Test results taken from paper PMC9311798, “A Novel Class of Potent Anti-Tyrosinase Compounds with Antioxidant Activity, 2-(Substituted phenyl)-5-(trifluoromethyl)benzo[d]thiazoles: In Vitro and In Silico Insights” (Antioxidants, 2022).

Legend:
mushroom tyrosinase = target: T1, mushroom tyrosinase (Agaricus bisporus, UniProt C7FF04); test: Mushroom tyrosinase inhibition assay; assay type: biochemical
T1 construct: purchased Sigma-Aldrich
Procedure: Mushroom tyrosinase inhibitory activity was determined as described previously, with minor modifications. L-Tyrosine was used as a substrate to determine enzyme activities. […] These dose-dependent inhibition experiments were carried out three times using three to five different concentrations of test compounds to determine IC50 values. Log–linear curves and their equations were derived from the observed percentages of inhibition.

[1] = system: B16F10 murine melanoma cells; test: B16F10 cell viability assay (EZ-Cytox); assay type: cell-based; conditions: concentrations ≤20 μM, 48 h
Procedure: B16F10 murine melanoma cells were obtained from the American Type Culture Collection (ATCC, Manassas, VA, USA). Phosphate buffer solution (PBS), Dulbecco’s modified Eagle’s medium (DMEM), streptomycin, penicillin, trypsin, and fetal bovine serum (FBS) were purchased from Gibco/Thermo Fisher Scientific (Carlsbad, CA, USA). B16F10 cells were cultured in a DMEM solution comprising 10% heat-inactivated FBS, penicillin (100 IU/mL), and streptomycin (100 µg/mL), at 37 °C in a humidified 5% CO2 atmosphere. Experiments for anti-melanogenesis activity, cell viability, and anti-tyrosinase activity were assayed on these cells in 96- or 6-well culture plates.
Cell viability assays for B16F10 were performed using the EZ-Cytox assay (EZ-3000, DoGenBio, Seoul, Korea). In brief, B16F10 cells were seeded in a 96-well plate at a density of 1 × 10^4 cells/well, and cultured at 37 °C for 24 h in a humidified 5% CO2 atmosphere. The next day, B16F10 cells were exposed to six concentrations of 1a or 1b (0, 1, 2, 5, 10, or 20 μM), and incubated under the same conditions for 48 h. Then, the EZ-Cytox solution (10 μL) was added to each well, and the cells mixed with the EZ-Cytox solution were further incubated for 2 h. At 450 nm, optical densities were measured using a microplate reader (VersaMax^TM, Molecular Devices, Sunnyvale, CA, USA).

[2] = system: B16F10 murine melanoma cells; test: Extracellular melanin content (melanin release into medium) in α-MSH/IBMX-stimulated cells; assay type: cell-based
Procedure: The anti-melanogenic activities of 1a and 1b were determined using a standard melanin content assay, with minor changes. Briefly, B16F10 cells were seeded in the wells of a 6-well plate at a density of 1 × 10^5 cells/well, and allowed to adhere to well bottoms over 24 h under the conditions used for cell culture (Section 2.3.5). […] Absorbances of culture media at 405 nm were used to determine extracellular melanin contents.

[3] = system: B16F10 murine melanoma cells; test: Intracellular melanin content in α-MSH/IBMX-stimulated cells; assay type: cell-based
Procedure: The cultured cells were rinsed with PBS twice and pellets were dissolved in 200 µL of 1N-NaOH solution containing 10% DMSO for 1 h at 60 °C. Cell lysates were then transferred to a 96-well plate, and the melanin absorbances were measured in aqueous DMSO at 405 nm using a microplate reader (VersaMax^TM, Molecular Devices, Sunnyvale, CA, USA).

[4] = target: T2, cellular tyrosinase in B16F10 cells (Mus musculus, UniProt P11344); test: Cellular tyrosinase activity (L-DOPA oxidation) in α-MSH/IBMX-stimulated cells; assay type: cell-based, murine
T2 construct: endogenous in cells; host or cells: B16F10 murine melanoma cells, stimulated with alpha-MSH and IBMX
T2 sequence (P11344 19-533): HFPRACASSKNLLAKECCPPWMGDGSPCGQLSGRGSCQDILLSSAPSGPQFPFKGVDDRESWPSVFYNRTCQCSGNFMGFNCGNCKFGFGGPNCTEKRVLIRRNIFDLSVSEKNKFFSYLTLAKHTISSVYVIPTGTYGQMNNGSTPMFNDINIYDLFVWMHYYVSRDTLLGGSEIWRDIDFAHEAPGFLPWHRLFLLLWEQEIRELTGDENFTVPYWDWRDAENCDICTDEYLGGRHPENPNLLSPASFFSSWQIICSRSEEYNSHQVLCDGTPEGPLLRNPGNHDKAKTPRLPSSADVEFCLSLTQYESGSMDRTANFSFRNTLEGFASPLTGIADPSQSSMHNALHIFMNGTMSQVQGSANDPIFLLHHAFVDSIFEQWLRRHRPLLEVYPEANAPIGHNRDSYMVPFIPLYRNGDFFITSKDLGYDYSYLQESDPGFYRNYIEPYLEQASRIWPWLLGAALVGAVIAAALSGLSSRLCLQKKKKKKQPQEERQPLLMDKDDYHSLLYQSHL
Procedure: Cellular tyrosinase activity was assessed by measuring the oxidation rate of L-DOPA as previously described, with minor modifications. In brief, B16F10 cells were seeded in a 6-well plate at 1 × 10^5 cells/well, and allowed to adhere to well bottoms for 24 h, as described in Section 2.3.5. […]. Cells were then rinsed twice with PBS, exposed to 100 µL of lysis buffer solution (90 µL of 50 mM phosphate buffer (pH 6.5), 5 µL of 2 mM PMSF, and 5 µL of 20% Triton X-100), and lysed at −80 °C for 30 min. After defrosting, cell lysates were transferred to microcentrifuge tubes and centrifuged at 12,000 rpm for 30 min at 4°C, and supernatants (80 µL) were mixed with 20 µL of L-DOPA (2 mg/mL) in a 96-well plate, and incubated for 10 min at 37 °C. Absorbances were measured at 475 nm using a microplate reader (VersaMax^TM, Molecular Devices, Sunnyvale, CA, USA).

[5] = read-out: Mushroom tyrosinase inhibition (%)
[6] = 10 µM, compared with kojic acid 20 µM

T1 sequence (C7FF04 1-392 limits assumed): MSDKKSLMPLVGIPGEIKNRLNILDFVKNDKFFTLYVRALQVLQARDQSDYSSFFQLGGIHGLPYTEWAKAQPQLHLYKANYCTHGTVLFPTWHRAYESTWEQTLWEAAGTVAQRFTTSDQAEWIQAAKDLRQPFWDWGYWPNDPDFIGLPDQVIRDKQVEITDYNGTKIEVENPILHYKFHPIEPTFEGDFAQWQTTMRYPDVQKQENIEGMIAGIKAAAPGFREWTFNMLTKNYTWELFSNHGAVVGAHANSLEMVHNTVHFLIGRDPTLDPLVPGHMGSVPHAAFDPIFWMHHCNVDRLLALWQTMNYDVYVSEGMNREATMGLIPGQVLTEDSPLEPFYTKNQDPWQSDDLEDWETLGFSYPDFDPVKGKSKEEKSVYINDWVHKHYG

Oc1ccc(-c2nc3cc(C(F)(F)F)ccc3s2)cc1 [Compound 1a, 4-(5-(Trifluoromethyl)benzo[d]thiazol-2-yl)phenol]
IC50 (mushroom tyrosinase; L-tyrosine as substrate): 54.2 ± 0.82 µM | inhibition at 10 µM (mushroom tyrosinase; [5]): 30.4 ± 0.31% | inhibition at 50 µM (mushroom tyrosinase; [5]): 48.2 ± 0.25% | cytotoxic effect on B16F10 cell viability [1]: Neither compound exhibited a significant cytotoxic effect | melanin release ([2]; 20 µM): reduced melanin release to control levels | effect on melanin content in media ([2]; 5, 10, 20 µM, α-MSH (1 µM) + IBMX (200 µM), 48 h): concentration-dependently and significantly reduced melanin content increases | inhibition of α-MSH/IBMX-induced intracellular melanin increase [3, 6]: more potently inhibited α-MSH/IBMX-induced increases in melanin than kojic acid at 20 µM | effect on intracellular melanin content ([3]; 5, 10, 20 µM, α-MSH + IBMX, 48 h): significantly and concentration-dependently reduced intracellular melanin increases | cellular tyrosinase activity [4, 6]: reduced tyrosinase activity to that achieved by 20 µM kojic acid | effect on cellular tyrosinase activity ([4]; 5, 10, 20 µM, IBMX + α-MSH, 48 h): significantly and concentration-dependently suppressed | melting point: 187.2 to 188.9 °C
